We go through 28 compounds from patent US20240279205A1, “NOVEL BENZIMIDAZOLE DERIVATIVE” (Carna Biosciences, Inc., priority 2020, published 2024).

Counter-ions that a name gives are not always drawn. Some results are limits rather than exact numbers.

In one test the target is T1, human STING (hSTING) (Homo sapiens, UniProt Q86WV6).
T1 construct: host or cells: HEK-Blue ISG cells (HEK293-derived SEAP reporter line)
In words: Inhibition test of intracellular human STING (hSTING) pathway using SEAP reporter cells (HEK-Blue ISG), stimulation with Compound 3. More on the design: hSTING inhibitory activity: scale not given here. To be noted: Compound 3 10 nM stimulation, 21 hours; for IC50: read-out: hSTING inhibitory activity. The test is classed as cell-based. In short, it runs like this:
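HEK-Blue ISG cells with IRF-inducible SEAP reporter, pretreated 1 h with compound (final 0.1 to 10 μM), then stimulated with Compound 3 (final 10 nM) for 21 h at 37° C. Supernatant SEAP measured colorimetrically; IC50 from log-concentration regression, normalized to stimulated (100%) and unstimulated (0%) controls.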

Test [1] deals with STING activation (IFN-β production in THP-1 cells). Briefly: Human IFN-β production inhibition test by cGAMP stimulation in THP-1 cells. It counts as cell-based. More on the design: IFN-β bioinhibitory activity: scale not given here. To be noted: 2'3'-cGAMP transfection, 18 hours, IFN-β ELISA; for IC50: Homo sapiens, read-out: IFN-β bioinhibitory activity. The method, boiled down: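 PMA-primed (100 nM, overnight) THP-1 cells pretreated 1 h with compound at 0.001 to 1 μM (0.1% DMSO), then transfected with 0.12 μg/well 2′3′-cGAMP and cultured 18 hours. Supernatant IFN-β measured by ELISA; IC50 by regression against log concentration, normalised to cGAMP-only (100%) and unstimulated (0%) controls.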
On the technique in general: In an ELISA, binding on a coated surface is turned into a signal by an enzyme label.

T1 sequence (Q86WV6 whole entry H232R): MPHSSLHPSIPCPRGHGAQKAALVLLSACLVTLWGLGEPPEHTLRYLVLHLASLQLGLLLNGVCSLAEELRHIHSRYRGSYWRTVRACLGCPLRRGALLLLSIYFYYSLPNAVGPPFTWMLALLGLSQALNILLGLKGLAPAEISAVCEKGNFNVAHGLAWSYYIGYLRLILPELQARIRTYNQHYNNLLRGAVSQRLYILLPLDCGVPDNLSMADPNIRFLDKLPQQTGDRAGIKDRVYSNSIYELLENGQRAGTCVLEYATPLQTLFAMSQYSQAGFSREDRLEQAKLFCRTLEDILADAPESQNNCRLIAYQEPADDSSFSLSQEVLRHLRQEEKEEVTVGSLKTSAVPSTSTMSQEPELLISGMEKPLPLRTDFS

Turning to `CCn1c(Nc2c[nH]c3ccc(Cl)cc23)nc2cc(C(F)(F)F)ccc21` [Embodiment 217, N-(5-Chloro-1H-indol-3-yl)-1-ethyl-5-(trifluoromethyl)-1H-benzo[d]imidazol-2-amine], the hSTING inhibitory activity result on human STING (hSTING) is listed as “* * *”. Further, the IFN-β bioinhibitory activity entry in test [1] is recorded as “* *”.
Take `Cc1cc(C)c2nc(Nc3c[nH]c4ccc(Cl)nc34)[nH]c2c1` [Embodiment 87, N-(5-Chloro-1H-pyrrolo[3,2-b]pyridin-3-yl)-4,6-dimethyl-1H-benzo[d]imidazol-2-amine]: the hSTING inhibitory activity entry at human STING (hSTING) was “* *”. For the same compound, the IC50 in test [1] lay in the range of 0.1 to 1 µM.
The like results for `CC(C)n1c(Nc2c[nH]c3ccc(Cl)nc23)nc2ccc(Oc3ccccc3)cc21` [Embodiment 117, N-(5-Chloro-1H-pyrrolo[3,2-b]pyridin-3-yl)-1-isopropyl-6-phenoxy-1H-benzo[d]imidazol-2-amine] were, in that order, “* * *” and 0.1 to 1 µM.
Consider `Brc1ccc2[nH]c(Nc3c[nH]c4ccc(Br)cc34)nc2c1` [Example 7, 5-bromo-N-(5-bromo-1H-indol-3-yl)-1H-benzo[d]imidazol-2-amine], for which the hSTING inhibitory activity entry at human STING (hSTING) is given as “* * *”. Also, the IFN-β bioinhibitory activity result in test [1] is “* *”.
The like results for `FC(F)(F)c1ccc2[nH]c(Nc3c[nH]c4ccc(Br)cc34)nc2c1` [Example 8, N-(5-bromo-1H-indol-3-yl)-5-(trifluoromethyl)-1H-benzo[d]imidazol-2-amine] were, in that order, “* *” and “* *”.
The like results for `OCCn1c(Nc2c[nH]c3ccc(Cl)cc23)nc2cc(C(F)(F)F)cc(F)c21` [Embodiment 236, 2-{2-[(5-chloro-1H-indol-3-yl)amino]-7-fluoro-5-(trifluoromethyl)-1H-benzo[d]imidazol-1-yl}ethane-1-oar] were, in that order, “* * *” and “* *”.
On to `c1ccc(Oc2ccc3[nH]c(Nc4c[nH]c5c(-c6ccccc6)ccnc45)nc3c2)cc1` [Embodiment 54, 5-phenoxy-N-(7-phenyl-1H-pyrrolo[3,2-b]pyridin-3-yl)-1H-benzo[d]imidazol-2-amine], for which the hSTING inhibitory activity result at human STING (hSTING) is given as “* *”. Besides, the IC50 in test [1] is not below 1 µM.
Taken in the same sequence, the figures for `CC#Cc1ccc2[nH]c(Nc3c[nH]c4ccc(Cl)nc34)nc2c1` [Embodiment 136, N-(5-Chloro-1H-pyrrolo[3,2-b]pyridin-3-yl)-5-(prop-1-yn-1-yl)-1H-benzo[d]imidazole-2-amine] were “* *” and 0.1 to 1 µM.
Take `CCO/C=C/c1ccc2[nH]c(Nc3c[nH]c4ccc(Cl)nc34)nc2c1` [Embodiment 114, (E)-N-(5-chloro-1H-pyrrolo[3,2-b]pyridin-3-yl)-5-(2-ethoxyvinyl)-1H-benzo[d]imidazol-2-amine]: the hSTING inhibitory activity result on human STING (hSTING) was “* * *”. Moreover, the IC50 in test [1] is not below 1 µM.
In the case of `Cn1c(Nc2c[nH]c3ccc(Cl)nc23)nc2cc(Br)ccc21` [Embodiment 169, 5-bromo-N-(5-chloro-1H-pyrrolo [3,2-b]pyridin-3-yl)-1-methyl-1H-benzo[d]imidazol-2-amine], the IC50 at human STING (hSTING) fell in the range of 1 to 10 µM. Also, the IFN-β bioinhibitory activity entry in test [1] is “* *”.
Consider `COCCn1c(Nc2c[nH]c3ccc(Cl)cc23)nc2cc(C(F)(F)F)ccc21` [Embodiment 222, N-(5-Chloro-1H-indol-3-yl)-1-(2-methoxyethyl)-5-(trifluoromethyl)-1H-benzo[d]imidazol-2-amine], for which the hSTING inhibitory activity entry on human STING (hSTING) is reported as “* * *”. The IFN-β bioinhibitory activity entry in test [1] was “* *”.
The like results for `Cn1c(Nc2c[nH]c3cc(F)c(F)cc23)nc2cc(C(F)(F)F)cc(F)c21` [Embodiment 261, N-(5,6-difluoro-1H-indol-3-yl)-7-fluoro-1-methyl-5-(trifluoromethyl)-1H-benzo[d]imidazol-2-amine] were, in that order, “* * *” and “* *”.
In the case of `CC(C)Oc1ccc2[nH]c(Nc3c[nH]c4ccc(Cl)nc34)nc2c1` [Embodiment 158, N-(5-Chloro-1H-pyrrolo[3,2-b]pyridin-3-yl)-5-isopropoxy-1H-benzo [d]imidazol-2-amine], at human STING (hSTING), the hSTING inhibitory activity result is “* *”. Further, the IC50 in test [1] was 0.1 to 1 µM.
Regarding `CC(C)n1c(Nc2c[nH]c3ccc(Cl)cc23)nc2cc(C(F)(F)F)ccc21` [Embodiment 218, N-(5-Chloro-1H-indol-3-yl)-1-isopropyl-5-(trifluoromethyl)-1H-benzo[d]imidazol-2-amine], at human STING (hSTING), the hSTING inhibitory activity result is “* * *”. For the same compound, in test [1], the IFN-β bioinhibitory activity result is “* *”.
For `Fc1cnc2[nH]cc(Nc3nc4cc(Oc5ccccc5)ccc4[nH]3)c2c1` [Embodiment 72, N-(5-fluoro-1H-pyrrolo[2,3-b]pyridin-3-yl)-5-phenoxy-1H-benzo [d]imidazol-2-amine formate], the hSTING inhibitory activity result on human STING (hSTING) is given as “* *”. For the same compound, the IC50 in test [1] lay within 0.1 to 1 µM.
For `FC(F)(F)c1ccc2[nH]c(Nc3c[nH]c4ccc(Cl)cc34)nc2c1` [Embodiment 268, N-(5-Chloro-1H-indol-3-yl)-5-(trifluoromethyl)-1H-benzo[d]imidazol-2-amine], the hSTING inhibitory activity entry at human STING (hSTING) was “* *”. Moreover, the IFN-β bioinhibitory activity result in test [1] is “* *”.
As for `FC(F)(F)c1ccc2c(c1)nc(Nc1c[nH]c3ccc(Cl)cc13)n2N1CCCC1` [Embodiment 247, N-(5-Chloro-1H-indol-3-yl)-1-(pyrrolidin-1-yl)-5-(trifluoromethyl)-1H-benzo[d]imidazol-2-amine], the hSTING inhibitory activity result on human STING (hSTING) was “* *”. Also, the IC50 in test [1] fell in the range of 0.1 to 1 µM.
`CCc1ccc2[nH]cc(Nc3nc4cc(Oc5ccccc5)ccc4[nH]3)c2n1` [Embodiment 103, N-(5-ethyl-1H-pyrrolo[3,2-b]pyridin-3-yl)-5-phenoxy-1H-benzo [d]imidazol-2-amine]: on human STING (hSTING), the hSTING inhibitory activity result is reported as “* *”. The IC50 in test [1] fell in the range of 0.1 to 1 µM.
Taken in the same sequence, the figures for `Cn1c(Nc2c[nH]c3ccc(Cl)cc23)nc2cc(C(F)(F)F)cc(C#N)c21` [Embodiment 264, 2-[(5-Chloro-1H-indol-3-yl)amino]-1-methyl-5-(trifluoromethyl)-1H-benzo[d]imidazole-7-carbonitrile] were “* * *” and 0.1 to 1 µM.
The like results for `Clc1ccc2[nH]cc(Nc3nc4cc(Oc5ccccc5)ccc4n3C3CC3)c2n1` [Embodiment 118, N-(5-Chloro-1H-pyrrolo[3,2-b]pyridin-3-yl)-1-cyclopropyl-5-phenoxy-1H-benzo[d]imidazol-2-amine] were, in that order, “* * *” and 0.1 to 1 µM.
Taken in the same sequence, the figures for `COc1cc2c(cc1C(F)(F)F)nc(Nc1c[nH]c3ccc(Cl)cc13)n2C` [Embodiment 263, N-(5-Chloro-1H-indol-3-yl)-6-methoxy-1-methyl-5-(trifluoromethyl)-1H-benzo[d]imidazol-2-amine] were “* *” and 0.1 to 1 µM.
In the case of `FC(F)(F)c1ccc2c(c1)nc(Nc1c[nH]c3ccc(Cl)nc13)n2C1CC1` [Embodiment 186, N-(5-Chloro-1H-pyrrolo[3,2-b]pyridin-3-yl)-1-cyclopropyl-5-(trifluoromethyl)-1H-benzo[d] imidazol-2-amine], the IC50 on human STING (hSTING) is 1 to 10 µM; in test [1], 0.1 to 1 µM.
`[2H]C([2H])([2H])n1c(Nc2c[nH]c3ccc(Cl)cc23)nc2cc(C(F)(F)F)ccc21` [Embodiment 221, N-(5-Chloro-1H-indol-3-yl)-1-(methyl-d3)-5-(trifluoromethyl)-1H-benzo[d]imidazol-2-mine]: the hSTING inhibitory activity entry on human STING (hSTING) is given as “* * *”. Besides, the IFN-β bioinhibitory activity result in test [1] is on record as “* *”.
For `CN(C)c1ccc(Oc2ccc3[nH]c(Nc4c[nH]c5ccc(Br)nc45)nc3c2)cc1` [Embodiment 64, N-(5-bromo-1H-pyrrolo[3,2-b]pyridin-3-yl)-5-[4-(dimethylamino)phenoxy]-1H-benzo[d]imidazol-2-amine], the hSTING inhibitory activity entry at human STING (hSTING) was “* *”. Besides, the IC50 in test [1] lay within 0.1 to 1 µM.
The like results for `Fc1cc(F)c2nc(Nc3c[nH]c4ccc(Cl)nc34)[nH]c2c1` [Embodiment 86, N-(5-Chloro-1H-pyrrolo[3,2-b]pyridin-3-yl)-4,6-difluoro-1H-benzo[d]imidazol-2-amine formate] were, in that order, “* *” and not below 1 µM.
For the compound `Clc1ccc2[nH]c(Nc3c[nH]c4ccc(Br)cc34)nc2c1` [Example 4, N-(5-bromo-1H-indol-3-yl)-5-chloro-1H-benzo[d]imidazol-2-amine], the hSTING inhibitory activity entry on human STING (hSTING) is reported as “* * *”. The IFN-β bioinhibitory activity result in test [1] is given as “* *”.
Consider `Cc1cc2nc(Nc3c[nH]c4ccc(Br)nc34)[nH]c2cc1C` [Embodiment 79, N-(5-bromo-1H-pyrrolo[3,2-b]pyridin-3-yl)-5,6-dimethyl-1H-benzo[d]imidazol-2-amine], for which the hSTING inhibitory activity result at human STING (hSTING) was “* *”. Further, in test [1], the IC50 is 0.1 to 1 µM.
As for `Cn1c(Nc2c[nH]c3ccc(Cl)cc23)nc2cc(C(F)(F)F)c(Cl)cc21` [Embodiment 250, 6-Chloro-N-(5-chloro-1H-indol-3-yl)-1-methyl-5-(trifluoromethyl)-1H-benzo[d]imidazol-2-amine], the hSTING inhibitory activity entry on human STING (hSTING) is reported as “* *”. Further, the IFN-β bioinhibitory activity entry in test [1] is on record as “* *”.
